# Patent US10172824B2, “Crystal forms of scutellarin aglycone and preparation thereof” (YUNNAN INSTITUTE OF MATERIA MEDICA, priority 2014, dated 2019)
# Like-named read-outs stand apart in the source and are kept apart here.
# How the values were obtained:
# [1] = test system: ischemia/reperfusion rats; assay: Evaluation of the degree of nerve function impairment (behavior score) in MCAO ischemia/reperfusion rats; assay type: in vivo, rat
# Procedure: SD male rat was fasted one night, with free access to water. At the day of experiment, the rat was anesthetized by intraperitoneal injection of 35% chloral hydrate (350 mg/kg), and fixed on its back. The skin was incised along the neck median line to expose the carotid artery at the right side, and the internal and external carotid artery were separated. 3# nylon wire (a diameter of 0.285 mm) was inserted from the free end of the external carotid artery, introduced into the internal carotid artery from the distal end of the external carotid artery, and inserted at the artery of Willis's circle in brain, to effectively occlude the middle cerebral artery. The inserted nylon wire was 18˜20 mm away from carotid artery bifurcation. The free end of the external carotid artery and the intra cavitary nylon wire were ligated, to prevent bleeding. […] After middle cerebral artery occlusion (MCAO) for 2 h, the nylon wire was carefully drawn out from the internal carotid artery, and the internal carotid artery was subjected to reperfusion. […] The animals were grouped depending on the score of nerve function. Three groups were classified in the experiment, 15 animals for each group. […] In the sham-operated group and the model control group, an equal volume of 0.3% sodium carboxymethyl cellulose (CMC-Na) was administered. […] 2.3.1 Evaluation of the degree of nerve function impairment: the behavioral disorder of the animal was scored by double blind method at 1 h (before administration), 12 h, 24 h, 36 h, 48 h after reperfusion, according to the score standards in the following table, so as to evaluate the degree of nerve function impairment, wherein the total score is 16, the higher the score is, the more serious the degree of nerve function impairment is in the animal (Li Qian, Wang Qiujuan, Guo Qinglong, Protective effect of TQ0701-2 on cerebral ischemia reperfusion injury in rats [J]. CHINESE JOURNAL OF CLINICAL PHARMACOLOGY AND THERAPEUTICS, 2010, 15(1): 36-40.) Data was processed by the statistical analysis software SPSS11.5, and the results were expressed by x±s, and mathematical statistics were performed by using t-test for normal distribution data and using rank-sum test for skewed distribution.
# [2] = test system: MCAO-induced ischemia-reperfusion rat; assay: Cerebral infarction percentage 48 h after reperfusion (TTC staining) in MCAO ischemia/reperfusion rats; assay type: in vivo
# Procedure: SD male rat was fasted one night, with free access to water. At the day of experiment, the rat was anesthetized by intraperitoneal injection of 35% chloral hydrate (350 mg/kg), and fixed on its back. The skin was incised along the neck median line to expose the carotid artery at the right side, and the internal and external carotid artery were separated. 3# nylon wire (a diameter of 0.285 mm) was inserted from the free end of the external carotid artery, introduced into the internal carotid artery from the distal end of the external carotid artery, and inserted at the artery of Willis's circle in brain, to effectively occlude the middle cerebral artery. The inserted nylon wire was 18˜20 mm away from carotid artery bifurcation. The free end of the external carotid artery and the intra cavitary nylon wire were ligated, to prevent bleeding. […] After middle cerebral artery occlusion (MCAO) for 2 h, the nylon wire was carefully drawn out from the internal carotid artery, and the internal carotid artery was subjected to reperfusion. […] The animals were grouped depending on the score of nerve function. Three groups were classified in the experiment, 15 animals for each group. […] In the sham-operated group and the model control group, an equal volume of 0.3% sodium carboxymethyl cellulose (CMC-Na) was administered. […] The rat was decapitated and the brain was taken 48 h after reperfusion, and was quickly frozen. The brain was cut along the coronal plane to obtain a 2 mm-thick slice. The brain slice was put in 1% TTC stain solution, and stained at 37° C. in dark by incubation for 30 min. After fixing with 10% formaldehyde solution for 1 week, the digits and images were stored in computer by digital camera imaging system. The infarction area and the whole brain area were determined by Medical Microscopic image Compute-aided Analysis System (MIAS) of Image Center of Beihang University, and the cerebral infarction percentage was calculated (the percentage of the infarction area in the whole brain area). […]
# [3] = cited from earlier work; for substances detected in rat plasma: oral
# [4] = compared with scutellarin; cited from earlier work
# [5] = Stability of crystal forms; conditions: room temperature below 50° C.
# [6] = 360 mg scutellarin orally to a subject, 5 h (blood collected at 1, 3, 5, 8 h; determined only at 5 h); cited from earlier work
smiles,measurement,setting,value
"O=c1cc(-c2ccc(O)cc2)oc2cc(O)c(O)c(O)c12 [scutellarin aglycone, 5,6,7-trihydroxy-2-(4-hydroxyphenyl)-4H-benzopyran-4-one]",improvement rate of nerve function disorder,"[1]; crystal form A, 45.8 mg/kg intragastric, 48 h, compared to model control group, P<0.05",34.97%
same,"Behavior score at different time after reperfusion, 1 h","[1]; ischemia/reperfusion rats, 45.8 mg/kg, 1 h after reperfusion (before administration), total score 16, x ± s, n = 15",10.57 ± 2.22
same,"Behavior score at different time after reperfusion, 12 h","[1]; ischemia/reperfusion rats, 45.8 mg/kg, 12 h after reperfusion, total score 16, x ± s, n = 15",7.96 ± 2.29
same,"Behavior score at different time after reperfusion, 24 h","[1]; ischemia/reperfusion rats, 45.8 mg/kg, 24 h after reperfusion, total score 16, x ± s, n = 15",7.15 ± 2.56
same,"Behavior score at different time after reperfusion, 36 h","[1]; ischemia/reperfusion rats, 45.8 mg/kg, 36 h after reperfusion, total score 16, x ± s, n = 15",6.23 ± 2.87
same,"Behavior score at different time after reperfusion, 48 h","[1]; ischemia/reperfusion rats, 45.8 mg/kg, 48 h after reperfusion, total score 16, x ± s, n = 15",5.69 ± 2.67
same,reducing rate of cerebral infarction area,"[2]; crystal form A, 45.8 mg/kg intragastric, compared to model control group, P<0.05",42.46%
same,Cerebral infarction percentage (%),"[2]; ischemia/reperfusion rats, 45.8 mg/kg, TTC stain, x ± s, n = 15",9.16 ± 0.09 %
same,Reducing rate (%),"[2]; reduction of cerebral infarction percentage compared to the model control group, 45.8 mg/kg",42.46%
same,substances detected in rat plasma,[3]; 20 mg/kg scutellarin aglycone,only scutellarin was detected
same,substances detected in rat plasma,[3]; 200 mg/kg scutellarin aglycone,both scutellarin aglycone and scutellarin could be detected
same,metabolic stability,"[3]; rats, intragastric, relative to scutellarin",metabolically stable relative to scutellarin
same,oral absorption relative to scutellarin,[4],about 3 fold
same,permeability in gastrointestinal tract,[4],higher permeability in gastrointestinal tract than scutellarin
"O=c1cc(-c2ccc(O)cc2)oc2cc(O)c(O)c(O)c12 [crystal form A, 5,6,7-trihydroxy-2-(4-hydroxyphenyl)-4H-benzopyran-4-one]",stability of crystal form,[5],the most stable crystal forms
O=C(O)[C@H]1O[C@@H](Oc2cc3oc(-c4ccc(O)cc4)cc(=O)c3c(O)c2O)[C@H](O)[C@@H](O)[C@@H]1O [scutellarin],blood concentration of scutellarin,[6],20 ng/mL
